Test results as given in patent US20040248926A1, “Preventive or remedy for pruritus” (priority 2001, published 2004).

What was measured:
Type in all cases: in vivo
Acute toxicity test = settings: oral administration, male dd mice, mortality on the seventh day
Experimental: The test compound was administered orally or intraperitoneally to three/group male dd mice (body weight: 20±1 g). The minimum lethal dose (MLD) was obtained by observing the mortality on the seventh day after the administration.

[1] = tested on: poly-L-arginine-induced scratching; assay: Inhibitory effect on poly-L-arginine-induced scratching; settings: rats
Experimental: The experiment was carried out according to the method of Hayashi, et al. [Eur. J. Pharmacol., Vol. 425, pp. 219-227 (2001)].
(§1) Male Wistar rats of 5 weeks (supplied by Japan SLC) were used in the test. 4 to 6 rats were put in each plastic cage and reared by allowing them to freely take commercially available solid feed and water, in an animal room at 19-25° C., 30-70% humidity and a 12 h lighting cycle (lighting: 7:00 a.m. to 7:00 p.m.) a day.
Every rat was shaven on the back, individually put in an acrylic monitor cage (200×145×170 mm), and acclimated therein for 30 minutes. 50 μl of a solution of poly-L-arginine (by Sigma) (4 mg of poly-L-arginine was dissolved in 1 ml of physiological saline) was intracutaneously injected into the interscapular region of each rat. For 30 minutes immediately after this, the behavior of every rat was recorded with a 8-mm video camera recorder. The video was reproduced, and the number of the scratching by its back paws at around the area where the solution had been intracutaneously injected was counted for 30 minutes immediately after the intracutaneous administration. Each rat scratched itself a few times per about one second, and a series of these actions of each rat was counted as one.
Compound 1 was suspended in aqueous 0.5 w/v % methyl cellulose solution to have a concentration of 0.1 or 1 mg/ml. […]

[2] = tested on: compound 48/80-induced scratching; assay: Inhibitory effect on compound 48/80-induced scratching in mice; settings: for number of the scratching: mean ± standard error; for effect on compound 48/80-induced scratching (in words): mice, p.o.
Experimental: The experiment was carried out according to the method of Kuraishi, et al. [Eur. J. Pharmacol., Vol. 275, pp. 229-233 (1995)).
as §1, with “ddY mice each weighing 19 to 22 g” for “Wistar rats of 5 weeks”, “25” for “4”, “26 mice” for “6 rats”
0.1 ml of a solution of compound 48/80 (by Sigma) (0.1 mg of compound 48/80 was dissolved in 1 ml of physiological saline) was subcutaneously injected into the right-side back shoulder of each mouse, and all the mice were individually put in a transparent cage. For 1 hour immediately after this, the behavior of every mouse was recorded with an 8-mm video camera recorder. The video was reproduced, and the number of the scratching by its right hind paw was counted for 1 hour immediately after the subcutaneous administration, at intervals of 5 minutes or 10 minutes, and the data of every 5 or 10 minutes were totaled. Each mouse scratched itself a few times per about one second, and a series of these actions of each mouse was counted as one.
Compound 1 and Compound 2 were separately suspended in aqueous 0.5 w/v % methyl cellulose solution to have a concentration of 3 mg/ml. The suspension of Compound 1 was further diluted with aqueous 0.5w/v % methyl cellulose solution, and suspensions or solutions for administration each having an intended concentration were prepared. The solvent (aqueous 0.5 w/v % methyl cellulose solution) or the suspension or solution for administration was orally administered to each mouse, 30 minutes before the subcutaneous injection of the compound 48/80, and its volume was 10 ml/kg. The solvent-administered mice were a control group.

## C[C@](O)(C(=O)Nc1cccc2c1C(=O)c1sccc1CS2(=O)=O)C(F)(F)F [Compound 1, (S)-(+)-3,3,3-trifluoro-2-hydroxy-2-methyl-N-(5,5,10-trioxo-4,10-dihydrothieno[3,2c][1]benzothiepin-9-yl)propanamide]
Acute toxicity test
  minimum lethal dose (MLD): > 1000 mg/kg
[1]; 10 mg/kg p.o., 2 hours before intracutaneous poly-L-arginine, mean ± standard error, n = 8
  Number of Scratching Actions for 30 minutes: 14 ± 3
[1]; p.o.
  effect on poly-L-arginine-induced pruritic behavior (in words): inhibited
[2]; 3 mg/kg p.o., 0-5 min after subcutaneous injection of compound 48/80, totaled, n = 4
  number of the scratching: 3 ± 1
[2]; 3 mg/kg p.o., 5-10 min after subcutaneous injection, totaled, n = 4
  number of the scratching: 7 ± 2
[2]; 3 mg/kg p.o., 10-15 min after subcutaneous injection, totaled, n = 4
  number of the scratching: 9 ± 1
[2]; 3 mg/kg p.o., 15-20 min after subcutaneous injection, totaled, n = 4
  number of the scratching: 12 ± 4
[2]; 3 mg/kg p.o., 20-25 min after subcutaneous injection, totaled, n = 4
  number of the scratching: 13 ± 4
[2]; 3 mg/kg p.o., 25-30 min after subcutaneous injection, totaled, n = 4
  number of the scratching: 14 ± 5
[2]; 3 mg/kg p.o., 30-35 min after subcutaneous injection, totaled, n = 4
  number of the scratching: 15 ± 5
[2]; 3 mg/kg p.o., 35-40 min after subcutaneous injection, totaled, n = 4
  number of the scratching: 15 ± 5
[2]; 3 mg/kg p.o., 40-45 min after subcutaneous injection, totaled, n = 4
  number of the scratching: 17 ± 6
[2]; 3 mg/kg p.o., 45-50 min after subcutaneous injection, totaled, n = 4
  number of the scratching: 18 ± 6
[2]; 3 mg/kg p.o., 50-55 min after subcutaneous injection, totaled, n = 4
  number of the scratching: 18 ± 6
[2]; 3 mg/kg p.o., 55-60 min after subcutaneous injection, totaled, n = 4
  number of the scratching: 18 ± 6
[2]; 10 mg/kg p.o., 0-5 min after subcutaneous injection, totaled, n = 4
  number of the scratching: 2 ± 1
[2]; 10 mg/kg p.o., 5-10 min after subcutaneous injection, totaled, n = 4
  number of the scratching: 6 ± 2
[2]; 10 mg/kg p.o., 10-15 min after subcutaneous injection, totaled, n = 4
  number of the scratching: 8 ± 2
[2]; 10 mg/kg p.o., 15-20 min after subcutaneous injection, totaled, n = 4
  number of the scratching: 9 ± 2
[2]; 10 mg/kg p.o., 20-25 min after subcutaneous injection, totaled, n = 4
  number of the scratching: 10 ± 3
[2]; 10 mg/kg p.o., 25-30 min after subcutaneous injection, totaled, n = 4
  number of the scratching: 10 ± 3
[2]; 10 mg/kg p.o., 30-35 min after subcutaneous injection, totaled, n = 4
  number of the scratching: 11 ± 3
[2]; 10 mg/kg p.o., 35-40 min after subcutaneous injection, totaled, n = 4
  number of the scratching: 11 ± 3
[2]; 10 mg/kg p.o., 40-45 min after subcutaneous injection, totaled, n = 4
  number of the scratching: 12 ± 3
[2]; 10 mg/kg p.o., 45-50 min after subcutaneous injection, totaled, n = 4
  number of the scratching: 12 ± 3
[2]; 10 mg/kg p.o., 50-55 min after subcutaneous injection, totaled, n = 4
  number of the scratching: 12 ± 3
[2]; 10 mg/kg p.o., 55-60 min after subcutaneous injection, totaled, n = 4
  number of the scratching: 12 ± 3
[2]; 30 mg/kg p.o., 0-5 min after subcutaneous injection, totaled, n = 4
  number of the scratching: 0 ± 0
[2]; 30 mg/kg p.o., 5-10 min after subcutaneous injection, totaled, n = 4
  number of the scratching: 0 ± 0
[2]; 30 mg/kg p.o., 10-15 min after subcutaneous injection, totaled, n = 4
  number of the scratching: 1 ± 1
[2]; 30 mg/kg p.o., 15-20 min after subcutaneous injection, totaled, n = 4
  number of the scratching: 2 ± 1
[2]; 30 mg/kg p.o., 20-25 min after subcutaneous injection, totaled, n = 4
  number of the scratching: 3 ± 1
[2]; 30 mg/kg p.o., 25-30 min after subcutaneous injection, totaled, n = 4
  number of the scratching: 3 ± 1
[2]; 30 mg/kg p.o., 30-35 min after subcutaneous injection, totaled, n = 4
  number of the scratching: 4 ± 1
[2]; 30 mg/kg p.o., 35-40 min after subcutaneous injection, totaled, n = 4
  number of the scratching: 4 ± 1
[2]; 30 mg/kg p.o., 40-45 min after subcutaneous injection, totaled, n = 4
  number of the scratching: 4 ± 1
[2]; 30 mg/kg p.o., 45-50 min after subcutaneous injection, totaled, n = 4
  number of the scratching: 4 ± 1
[2]; 30 mg/kg p.o., 50-55 min after subcutaneous injection, totaled, n = 4
  number of the scratching: 4 ± 1
[2]; 30 mg/kg p.o., 55-60 min after subcutaneous injection, totaled, n = 4
  number of the scratching: 4 ± 1
[2]
  effect on compound 48/80-induced scratching (in words): inhibited

## CC(C)(O)C(=O)Nc1cccc2c1C(=O)c1sccc1CS2(=O)=O [Compound 2, 2-hydroxy-2-methyl-N-(5,5,10-trioxo-4,10-dihydrothieno [3,2c][1]benzothiepin-9-yl)propanamide]
[2]; 30 mg/kg p.o., 0-10 min after subcutaneous injection, totaled, n = 10
  number of the scratching: 10 ± 2
[2]; 30 mg/kg p.o., 10-20 min after subcutaneous injection, totaled, n = 10
  number of the scratching: 11 ± 3
[2]; 30 mg/kg p.o., 20-30 min after subcutaneous injection, totaled, n = 10
  number of the scratching: 14 ± 2
[2]; 30 mg/kg p.o., 30-40 min after subcutaneous injection, totaled, n = 10
  number of the scratching: 14 ± 2
[2]; 30 mg/kg p.o., 40-50 min after subcutaneous injection, totaled, n = 10
  number of the scratching: 14 ± 2
[2]; 30 mg/kg p.o., 50-60 min after subcutaneous injection, totaled, n = 10
  number of the scratching: 14 ± 2
[2]
  effect on compound 48/80-induced scratching (in words): inhibited
